According to patent US20240216357A1 (SICHUAN HUIYU PHARMACEUTICAL CO., LTD., priority 2021, published 2024):
Structures can show the parent of a compound that is named as a salt. Where two headings read alike, the source gives them in different places.

Experiments:
CYP3A4 = CYP3A4 (Homo sapiens (Human), UniProt P08684); settings: microsomes
LSD1 = LSD1 (Homo sapiens (Human), UniProt O60341); test: LSD1 enzyme activity detection (HTRF); type: biochemical; settings: HTRF, H3K4me1 substrate; read-out: Inhibition of enzymatic activity of LSD1 IC50
NCI-H1417 cells = test: In vitro cell proliferation detection (CellTiter-Glo, 7 days); type: cell-based; settings: NCI-H1417 cells, 7 days, CellTiter-Glo, read-out: NCI-H1417 proliferation inhibition IC50
[1] = molecular target: T1, voltage-gated potassium ion channel hERG (Homo sapiens (Human), UniProt Q12809)
T1 sequence (Q12809 whole entry): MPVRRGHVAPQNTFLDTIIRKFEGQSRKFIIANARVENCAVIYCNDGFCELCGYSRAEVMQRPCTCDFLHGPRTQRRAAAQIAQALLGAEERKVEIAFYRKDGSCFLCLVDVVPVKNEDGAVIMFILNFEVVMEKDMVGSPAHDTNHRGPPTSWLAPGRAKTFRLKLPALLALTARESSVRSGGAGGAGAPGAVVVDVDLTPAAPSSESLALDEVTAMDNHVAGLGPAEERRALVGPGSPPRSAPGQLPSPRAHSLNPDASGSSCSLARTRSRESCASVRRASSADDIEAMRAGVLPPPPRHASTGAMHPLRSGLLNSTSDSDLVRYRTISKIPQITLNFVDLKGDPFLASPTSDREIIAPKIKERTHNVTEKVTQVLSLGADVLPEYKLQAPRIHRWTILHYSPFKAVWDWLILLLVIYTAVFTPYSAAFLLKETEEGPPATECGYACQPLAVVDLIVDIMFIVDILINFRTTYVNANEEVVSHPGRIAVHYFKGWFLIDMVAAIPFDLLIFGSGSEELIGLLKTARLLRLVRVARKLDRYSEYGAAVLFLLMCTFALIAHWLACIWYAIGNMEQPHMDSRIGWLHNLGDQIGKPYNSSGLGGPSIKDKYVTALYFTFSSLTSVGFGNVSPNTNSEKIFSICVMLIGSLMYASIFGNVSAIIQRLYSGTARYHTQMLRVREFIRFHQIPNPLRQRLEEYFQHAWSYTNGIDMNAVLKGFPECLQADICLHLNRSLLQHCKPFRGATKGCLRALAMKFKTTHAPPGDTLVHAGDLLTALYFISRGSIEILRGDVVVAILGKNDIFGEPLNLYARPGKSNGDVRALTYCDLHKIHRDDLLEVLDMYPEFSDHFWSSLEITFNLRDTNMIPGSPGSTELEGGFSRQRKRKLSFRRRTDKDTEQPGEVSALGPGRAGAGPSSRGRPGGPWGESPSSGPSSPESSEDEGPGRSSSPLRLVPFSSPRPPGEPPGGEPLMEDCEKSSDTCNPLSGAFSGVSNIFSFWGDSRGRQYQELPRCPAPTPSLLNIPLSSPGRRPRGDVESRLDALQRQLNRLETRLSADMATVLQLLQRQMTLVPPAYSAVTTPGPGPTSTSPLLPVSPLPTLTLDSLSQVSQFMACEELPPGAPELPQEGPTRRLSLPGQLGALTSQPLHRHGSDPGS

in vivo = settings: male, SD, rat
[2] = rat, in vivo; for F: male, SD
Caco-2 cells = test: Caco-2 permeability test; settings: for Mean Papp A to B: Caco-2, A to B; for Mean Papp A to B / Mean Papp B to A: 120 min; for Mean Papp B to A: Caco-2, B to A
in vitro = settings: human, Caco-2
[3] = molecular target: T1, voltage-gated potassium ion channel hERG; test: hERG inhibition test (manual patch-clamp); settings: read-out: hERG IC50; manual patch-clamp
Throughout, for Cmax: test concentration or dose not given here.

CYP3A4, sequence (P08684 whole entry): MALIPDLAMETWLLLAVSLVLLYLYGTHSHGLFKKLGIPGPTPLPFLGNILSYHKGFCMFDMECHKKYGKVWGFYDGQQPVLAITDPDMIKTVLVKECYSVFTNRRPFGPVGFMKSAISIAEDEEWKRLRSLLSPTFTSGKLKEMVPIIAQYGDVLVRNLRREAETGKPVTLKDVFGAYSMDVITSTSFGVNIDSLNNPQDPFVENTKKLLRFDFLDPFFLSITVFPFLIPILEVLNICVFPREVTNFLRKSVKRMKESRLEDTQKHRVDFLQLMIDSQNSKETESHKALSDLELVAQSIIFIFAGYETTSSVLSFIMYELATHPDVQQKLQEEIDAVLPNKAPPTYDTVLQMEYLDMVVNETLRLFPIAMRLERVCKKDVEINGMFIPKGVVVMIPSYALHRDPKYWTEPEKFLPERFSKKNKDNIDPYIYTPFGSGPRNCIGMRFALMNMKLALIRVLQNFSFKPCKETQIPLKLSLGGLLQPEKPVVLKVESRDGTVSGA

COc1ccc(-c2c(-c3ccc(C#N)c(F)c3)nc(N3C4CCC3CC(N)C4)n3ccnc23)cc1O (stereo not drawn) [Example 155, 4-(5-(3-amino-8-azadicyclo[3.2.1]octane-8-yl)-8-(3-hydroxy-4-methoxyphenyl)imidazolo[1,2-c]pyrimidin-7-yl)-2-fluorobenzonitrile hydrochloride]
IC50 (CYP3A4): 18000 nM
IC50 (LSD1): 0.2 ± 0.1 nM
IC50 (NCI-H1417 cells; Homo sapiens, 168 h): 0.352 nM

N#Cc1ccc(-c2nc(N3C4CCC3CC(N)C4)n3ccnc3c2-c2cc3c(cc2F)OCO3)cc1F (stereo not drawn) [Example 175, 4-(5-(3-amino-8-azabicyclo[3.2.1]octane-8-yl)-8-(6-fluorobenzo[d] [1,3]dioxane-5- -yl)imidazolo [1,2-c]pyrimidin-7-yl)-2-fluorobenzonitrile hydrochloride]
IC50 (CYP3A4): 8080 nM
IC50 (LSD1): 3.2 ± 2.1 nM
IC50 (NCI-H1417 cells; Homo sapiens, 168 h): 4.13 nM

Cc1noc2cc(-c3c(-c4ccc(C#N)c(F)c4)nc(N4C5CCC4CC(N)C5)n4ccnc34)c(F)cc12 (stereo not drawn) [Example 118, 4-(5-(3-amino-8-azabicyclo [3.2.1]octane-8-yl)-8-(5-fluoro-3-methylbenzo[d]isoxazol-6-yl)imidazolo[1,2 c]pyrimidin-7-yl)-2-fluorobenzonitrile]
IC50 (CYP3A4): 8680 nM
IC50 [1]: 13200 nM
AUC(0-inf) (in vivo): 192 ng·h/mL
Cmax (in vivo): 26.9 ng/mL
Vd (in vivo): 20 L/kg
half-life (in vivo): 4.67 h
F [2]: 12.1%
Cl [2]: 56.1
IC50 (LSD1): 0.27 ± 0.01 nM
IC50 (NCI-H1417 cells; Homo sapiens, 168 h): 0.6 nM

CS(=O)(=O)N1CCN(c2cc(CCCN[C@@H]3C[C@H]3c3ccc(F)cc3)nc(-c3ccc(C#N)cc3)n2)CC1 [Example 261, 4-(4-(3-(1R,2S)-2-(4-fluorophenyl)cyclopropyl)amino)-6-(4-(methylsulfonyl)piperazin-1-yl)pyri midin-2-yl)benzonitrile formate]
Efflux Ratio (Caco-2 cells; Caco-2): 1.38
Mean Papp A to B (Caco-2 cells): 0.49 10^−6 cm/s
Mean Papp B to A (Caco-2 cells): 0.67 10^−6 cm/s
IC50 (NCI-H1417 cells): 3.22 nM

COc1ccc(-c2c(-c3ccc(C#N)c(F)c3)nc(N3C4CCC3CC(N)C4)n3ccnc23)cc1F (stereo not drawn) [Example 120, 4-(5-(3-amino-8-azabicyclo[3.2.1]octane-8-yl)-8-(3-fluoro-4-methoxyphenyl)imidazolo[1,2-c]pyrimidin-7-yl)-2-fluorobenzonitrile]
IC50 (CYP3A4): 8930 nM
IC50 [1]: 7830 nM
AUC(0-inf) (in vivo): 310 ng·h/mL
Cmax (in vivo): 34.7 ng/mL
Vd (in vivo): 14.5 L/kg
half-life (in vivo): 4.82 h
F [2]: 14.4%
Cl [2]: 39.9
Papp A→B at 120 min (in vitro): 2.88 ×10⁻⁶ cm/s
Papp B→A at 120 min (in vitro): 7.37 ×10⁻⁶ cm/s
efflux ratio at 120 min (in vitro): 2.56
IC50 (LSD1): 0.77 ± 0.43 nM
IC50 (NCI-H1417 cells; Homo sapiens, 168 h): 2.08 nM

N#CCn1ncc2cc(F)c(-c3sc(C(=O)N4C5CCC4CC(N)C5)cc3-c3ccc(C#N)c(F)c3)cc21 (stereo not drawn) [Example 215, 4-(5-(3-amino-8-azabicyclo [3.2.1]octan-8-carbonyl)-2-(1-(cyanomethyl)-5-fluoro-1H-indazol-6-yl)thiophen-3-yl)-2-fluoro-benzonitrile]
IC50 [1]: 11400 nM
IC50 (LSD1): 0.45 ± 0.05 nM
IC50 (NCI-H1417 cells; Homo sapiens, 168 h): 4.19 nM

CS(=O)(=O)N1CCN(C(=O)c2cc(CCCN[C@@H]3C[C@H]3c3ccc(F)cc3)nc(-c3ccc(-n4cccn4)cc3)n2)CC1 [Example 257, (2-(4-(1H-pyrazol-1-yl)phenyl)-6-(3-((1R,2S)-2-(4-fluorophenyl)cyclopropyl)amino)pyrimidin-4-yl)(4-(methylsulfonyl)piperazin-1-yl)methanone]
IC50 [3]: 2830 nM
Mean Papp A to B (Caco-2 cells): 1.54 10^−6 cm/s
Mean Papp B to A (Caco-2 cells): 4.55 10^−6 cm/s
